Test results: patent US20240165170A1, “USE OF LACTIC ACID BACTERIUM SET FOR PREVENTING OR TREATING NSAID-INDUCED GASTRIC ULCER” (GRAPE KING BIO LTD., priority 2022, published 2024)
Several values for one entry are separate records, joined by “and”; a condition that tells them apart may be missing. Identical values can stand only once.

Legend:
[1] = body weight change of mice during the test; format: in vivo; settings: between groups in the same period, p>0.05
Method: (§1) 24 mice were divided into a blank control group, a negative control group, a positive control group and a lactic acid bacteria test group, and there were 6 mice in each group. The mice were administered once a day for 39 consecutive days. The blank control group and the negative control group were given drinking water, the positive control group was given 20 mg/kg Omeprazole, and the lactic acid bacteria test group was given GKD7 and GKA4 freeze-dried powder, each 10.2 mg/kg/day. On day 29, 500 mg/kg aspirin was administered to the negative control group, positive control group and lactic acid bacteria test group to induce gastric ulcer (the blank control group was not administered) for 10 days (D29-D39), and finally the mice were sacrificed on D40 and performed various analyses.
(§2) The body weight of the mice was recorded every week, and after 39 consecutive days of administration, the mice were sacrificed with a high dose of Sutai 50 on the 40th day. The appearance, stomach tissues and organs of the mice were observed and made records.

ICR male mice = assay: aspirin-induced gastric ulcer test in ICR mice (ulcer area, ulcer index, cure rate, mucosal ulcer pathology); format: in vivo; design: key to Mucosal ulcer (pathological indicator, score per mouse): Grade 0 represents no ulcers occurred in normal tissue; Grade 1 represents less than ⅓ of superficial ulcer lesions in gastric mucosa; Grade 2 represents about ½ of superficial to middle ulcer lesions in gastric mucosa; Grade 3 represents about ⅔ of superficial to deep ulcer lesions in gastric mucosa; grade 4 represents gastric mucosal epithelial full-thickness ulcer and the lesion penetrates 3/3 of the muscle layer
Method: A total of 24 ICR male mice purchased from BioLASCO (Lesco Biotechnology) were used as the experimental animals, each about 25 grams. The mice were kept in a general mouse cage, the room temperature was maintained at 22±3° C., the humidity was 55±15%, and the light and darkness were regularly 12 hours (12 hr light-dark cycle). Feed and sterile reverse osmosis water was allowed to be eaten by mice freely. Newly imported animals need to be observed for 3-5 days to ensure that there is no abnormality before testing. Before the experiment, the ICR mice were randomly grouped and caged, and each ICR mouse was marked with an ear number for identification and recording.
as §1, §2
Ulcer area statistics: ImageJ software was utilized to circle the ulcer focus of gastric tissue to calculate the gastric ulcer focus area of each ICR mouse. Each ulcer focus can get different scores according to the size of the ulcer (see the table below):
After each ulcer focus score is obtained, the application calculates the ulcer index of the mouse according to the following formula 1, and the higher the ulcer index, the more severe the ulcer.
If the experimental group mice (positive control group, lactic acid bacteria test group) are compared with the negative control group mice and the area of gastric ulcer (ulcer index) is reduced, it means that the experimental group produces a healing effect. Dividing the ulcer index of the experimental group by the ulcer index of the negative control group obtains the ulcer improvement rate, which is then subtracted from 1 to get the healing rate (cure rate) compared with the negative control group. The calculation method is shown as the following formula 2: […]

Compound: COc1ccc2[nH]c([S+]([O-])Cc3ncc(C)c(OC)c3C)nc2c1 (centres unmarked) [Omeprazole]
- body weight of mice during the test [1]: no significant difference
- ulcer area (ICR male mice; ICR mice, once daily for 39 days, 500 mg/kg aspirin D29-D39, sacrificed D40, 6 mice per group): 7.12±2.15 mm^2
- ulcer index (ICR male mice; ICR mice, once daily for 39 days, 500 mg/kg aspirin D29-D39, formula 1, higher index = more severe ulcer): 2.57±0.67
- Cure rate (%) (ICR male mice; formula 2: 1 minus ulcer index of group / ulcer index of negative control group): 53.25%
- Mucosal ulcer (pathological indicator, score per mouse) (ICR male mice; stomach histopathology, individual mice, grade 0-4, higher score = more serious damage, listed as Positive control group): 0 and 1
